From patent publication US20040152739A1, “Acyclic pyrazole compounds for the inhibition of mitogen activated protein kinase-activated protein kinase-2” (priority 2002, published 2004)
Structures can show the parent of a compound that is named as a salt.

biological target: MK-2 (Homo sapiens, UniProt P49137); assay: Determination of MK-2 IC50 (anion exchange resin capture assay, HSP-peptide phosphorylation); type: biochemical; conditions: read-out: MK-2 Avg. IC50
Sequence (P49137 whole entry, species assumed): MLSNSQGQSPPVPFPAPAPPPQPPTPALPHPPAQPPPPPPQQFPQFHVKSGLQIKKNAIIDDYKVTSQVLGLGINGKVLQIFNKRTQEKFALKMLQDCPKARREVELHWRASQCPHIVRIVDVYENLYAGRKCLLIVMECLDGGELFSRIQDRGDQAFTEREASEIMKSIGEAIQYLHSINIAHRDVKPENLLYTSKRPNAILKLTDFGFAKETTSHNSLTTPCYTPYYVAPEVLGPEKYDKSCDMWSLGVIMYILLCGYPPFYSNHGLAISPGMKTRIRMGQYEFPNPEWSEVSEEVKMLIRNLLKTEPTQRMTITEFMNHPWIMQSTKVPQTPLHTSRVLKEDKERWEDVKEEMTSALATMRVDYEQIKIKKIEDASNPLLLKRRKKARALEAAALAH
Protocol: The phosphorylation of HSP-peptide ([sequence]) by MAPKAPK2 was measured using an anion exchange resin capture assay method. […] The reaction was terminated and [γ^33P]ATP was removed from solution by the addition of 150 μl of AG 1×8 ion exchange resin in 900 mM sodium formate pH 3.0. A 50 μl aliquot of head volume was removed from the quenched reaction mixture and added to a 96-well plate, 150 μl of Microscint-40 (Packard) was added and the amount of phosphorylated-peptide was determined. Allow the Microscint to sit in the plates for 60 minutes prior to counting.
Compounds are evaluated as potential inhibitors of the MK2 kinase by measuring their effects on MK2 phosphorylation of the peptide substrate. Compounds may be screened initially at two concentrations prior to determination of IC50 values. Screening results are expressed as percent inhibition at the concentrations of compound tested. For IC50 value determinations, compounds are tested at six concentrations in ten-fold serial dilutions with each concentration tested in triplicate. Results are expressed as IC50 values in micromolar. The assay is performed at a final concentration of 2% DMSO.
Compounds are evaluated as potential inhibitors of the MK-2 kinase by measuring their effects on MK-2 phosphorylation of the peptide substrate. Compounds may be screened initially at two concentrations prior to determination of IC50 values. Screening results are expressed as percent inhibition at the concentrations of compound tested. For IC50 value determinations, compounds are tested at six concentrations in ten-fold serial dilutions with each concentration tested in triplicate. Results are expressed as IC50 values in micromolar. The assay is performed at a final concentration of 2% DMSO.

| Compound | IC50 |
| --- | --- |
| O=C1NCCCn2nc(-c3ccnc(-c4cccc([N+](=O)[O-])c4)c3)cc21 [Example 66] | 1260 nM |
| O=C1NCCn2nc(-c3ccnc(-c4ccc(OCCN5CCOCC5)cc4)c3)cc21 [Example 43, dihydrochloride] | 630 nM |
| CCOC(=O)c1cc(-c2ccnc(-c3cnc4ccccc4c3)c2)nn1CCN [Example 58, hydrochloride] | 1030 nM |
| O=C1NCCn2nc(-c3ccnc(-c4cccnc4)c3)cc21 [Example 41, dihydrochloride] | 586 nM |
| COc1ccc(-c2cc(-c3cc4n(n3)CCNC4=O)ccn2)cc1F [Example 30] | 471 nM |
| O=C1NCCn2nc(-c3ccnc(-c4ccc5sccc5c4)c3)cc21 [Example 56, trifluoroacetate] | 965 nM |
| O=C1NCCn2nc(-c3ccnc(-c4ccc5ncccc5c4)c3)cc21 [Example 23, dihydrochloride] | 298 nM |
| O=C1NCCn2nc(-c3ccnc(-c4ccc5occc5c4)c3)cc21 [Example 37, trifluoroacetate] | 543 nM |
| O=C1Cc2cc(-c3cc(-c4cc5n(n4)CCNC5=O)ccn3)ccc2N1 [Example 38, trifluoroacetate] | 554 nM |

Other lines, results leading:

| IC50 | Compound |
| --- | --- |
| 5660 nM | O=C1NCCCn2nc(-c3ccnc(-n4ccnc4)c3)cc21 [Example 113, 2-[2-(1H-imidazol-1-yl)pyridin-4-yl]-5,6,7,8-tetrahydro-4H-pyrazolo[1,5-a][1,4]diazepin-4-one hydrochloride] |
| 7040 nM | O=C1NCCn2nc(-c3ccnc(-n4cnc(-c5ccccc5)c4)c3)cc21 [Example 117, 2-[2-(4-phenyl-1H-imidazol-1-yl)pyridin-4-yl]-6,7-dihydropyrazolo[1,5-a]pyrazin-4(5H)-one] |
| 1690 nM | COc1cncc(-c2cc(-c3cc4n(n3)CCNC4=O)ccn2)c1 [Example 77, trifluoroacetate] |
| 124000 nM | O=C1NCCCn2nc(-c3ccnc(-c4ccc(OC(F)(F)F)cc4)c3)cc21 [Example 148, 2-{2-[4-(trifluoromethoxy)phenyl]pyridin-4-yl}-5,6,7,8-tetrahydro-4H-pyrazolo[1,5-a][1,4]diazepin-4-one] |
| 2400 nM | CN(C)c1ncnc2ccc(-c3cc(-c4cc5n(n4)CCNC5=O)ccn3)cc12 [Example 86] |
| 1750 nM | O=C1NCCCn2nc(-c3ccnc(-c4ccc(CO)cc4)c3)cc21 [Example 79, 2-{2-[4-(hydroxymethyl)phenyl]pyridin-4-yl}-5,6,7,8-tetrahydro-4H-pyrazolo[1,5-a][1,4]diazepin-4-one] |
| 65500 nM | O=C1NCCn2nc(-c3ccnc(-c4ccc(Cl)c(Cl)c4)c3)cc21 [Example 144, 2-[2-(3,4-dichlorophenyl)pyridin-4-yl]-6,7-dihydropyrazolo[1,5-a]pyrazin-4(5H)-one trifluoroacetate] |
| 1460 nM | O=C1NCCn2nc(-c3ccnc(-c4ccoc4)c3)cc21 [Example 73, hydrochloride] |
| 3310 nM | CC(=O)Nc1cccc(-c2cc(-c3cc4n(n3)CCNC4=O)ccn2)c1 [Example 99, N-{3-[4-(4-oxo-4,5,6,7-tetrahydropyrazolo[1,5-a]pyrazin-2-yl)pyridin-2-yl]phenyl}acetamide] |
| 28200 nM | O=C1NCCCn2nc(-c3ccnc(-n4cncn4)c3)cc21 [Example 135, 2-[2-(1H-1,2,4-triazol-1-yl)pyridin-4-yl]-5,6,7,8-tetrahydro-4H-pyrazolo[1,5-a][1,4]diazepin-4-one hydrochloride] |
| 4270 nM | O=C1NCCn2nc(-c3ccnc(-c4nc5ccccc5s4)c3)cc21 [Example 104, 2-[2-(1,3-benzothiazol-2-yl)pyndin-4-yl]-6,7-dihydropyrazolo[1,5-a]pyrazin-4(5H)-one] |
| 1170 nM | O=C1NC(CCl)Cn2nc(-c3ccnc(-c4cnc5ccccc5c4)c3)cc21 (centres unmarked) [Example 64] |
| 1560 nM | O=C1NCCn2nc(-c3ccnc(-c4ccc5c(c4)OCCO5)c3)cc21 [Example 76, trifluoroacetate] |
| 1070 nM | O=C1NCCn2nc(-c3ccnc(-c4ccc5c(c4)CCN5)c3)cc21 [Example 59, hydrochloride] |
